Data published in US20240114902A1, “COMPOSITIONS AND METHODS FOR DETERRING OVIPOSITION BY FRUIT FLIES” (The United States of America, as represented by The …, priority 2022, published 2024).

Tests used:
Drosophila suzukii (SWD) = test: Field test 2: sentinel raspberries in guava orchard, SWD adults emerged; format: in vivo; settings: 20 mg CFA equivalent/raspberry, total over replicates
Protocol: Field test 2 The oviposition deterrence of the 2c key-component blend and its two individual components against SWD and non-SWD drosophilids was tested under field conditions. This experiment was conducted in a guava orchard (19° 36′33.6″N, 155° 04′ 12.6″W) located near Hilo, Hawaii. To monitor oviposition, four sentinel organic raspberries purchased from a local grocery were placed (receptacles stuffed with cotton) inside a deli cup (600 mL; Placon, Madison, Wisconsin, USA). Each cup had nine 1 cm diameter holes spaced 3 cm apart along the cup's circumference and 8.5 cm from the bottom, which allowed the drosophilids to enter the cup. The four raspberries in each cup were surface-treated with one of five treatments: 1) 2c blend at 20 mg CFA equivalent/200 μL hexane/raspberry, 2) C8:0 at 20 mg CFA equivalent/200 μL hexane/raspberry, 3) C10:0 at 20 mg CFA equivalent/200 μL hexane/raspberry, 4) CFA at 20 mg/200 μL hexane/raspberry, or 5) 200 μL of hexane control/raspberry. The deli-cup traps were hung in guava trees 1.5 m from the ground with at least 10 m spacing between adjacent traps. […] Raspberries were removed from the traps, placed in rearing cups (600 mL deli cup with organdy cap), held in environmental chamber (22.1±1.9° C., 71.7±3.1% RH, 16:8 L:D), and monitored over a 2-week period. All emerged adults were counted and identified as SWD or non-SWD drosophilids. […]

Bactrocera dorsalis = test: B. dorsalis spatial deterrence, two-choice traps baited with guava juice; format: in vivo; settings: tested individually
Protocol: In addition to CFA, a series of odd-numbered carbon fatty acids (C9:0 to C17:0) and fatty acid methyl esters were evaluated for the spatial deterrence to B. dorsalis that results in oviposition reduction. Table 3 below lists the fatty acid methyl esters tested for spatial repellency for Bactrocera dorsalis. […] FIG. 16A, FIG. 16C, FIG. 16E, FIG. 16G, FIG. 16I, FIG. 16K, FIG. 16M, FIG. 16O, FIG. 16Q, and FIG. 16S show the mean numbers (±SEM) of mated female B. dorsalis flies captured, and FIG. 16B, FIG. 16D, FIG. 16F, FIG. 16H, FIG. 16J, FIG. 16L, FIG. 16N, FIG. 16P, FIG. 16R, and FIG. 16T show the number of B. dorsalis eggs oviposited in traps baited with guava juice (control) and with guava juice plus one of the coconut fatty acid methyl ester compounds in two-choice bioassays. For each test, different letter on the bar indicate a significant difference by Tukey-Kramer tests at P<0.05, n=4.

Q: `CCCCCCCCCC(=O)O` [C10:0, capric acid] was tested. Which “SWD adults emerging from treated raspberries” value (Drosophila suzukii (SWD)) did it give?
A: The value was 2 SWD.

Q: How did the “effect on female B. dorsalis attraction and oviposition to host fruit odors” value (Bactrocera dorsalis) turn out when `CCCCCCCC(=O)O` [C8:0, caprylic acid] was run?
A: The value was “significantly reduced”.
